IC50 data for 40 molecules are collected here from patent publication US12065445B2, “CDK2 inhibitors and methods of using the same” (Cedilla Therapeutics, Inc., priority 2021, dated 2024).

The subject of one assay is Kuramochi cells. The assay can be described thus: BrdU Cell Proliferation Assay. Particulars: read-out: BrdU - KURAMOCHI.1: IC50. The format is cell-based. A digest of the protocol:
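Kuramochi cells were seeded at 2,000 cells/well, adhered overnight, then treated with a 10-point, 3-fold compound dilution series for 4 days. Proliferation was measured by a 1-hour BrdU pulse, anti-BrdU peroxidase colorimetric ELISA and 450 nm absorbance. Values were background-subtracted and normalized to DMSO wells.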

Assay [1] deals with Kuramochi cells labeled with mApple-H2B. The experiment in a line: IncuCyte Cell Proliferation Assay. It is filed as cell-based. Particulars: 72 h. Put shortly: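 Cells imaged at 0 and 72 h after compound treatment (10 points, ½ log dilution, 20 μM top), with fluorescent nuclei counted. Fold change in count was normalized to DMSO wells and fitted to dose-response curves to give GI50.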

Consider `CNC(=O)[C@@H](NC(=O)[C@@H]1CN(C(=O)c2cncs2)CC12CN(C(=O)[C@H]1CC1(C)C)C2)[C@@H](C)OC1CC2CCC1CC2` (some centres unmarked) [I-464], for which the IC50 (in the assay on Kuramochi cells; in assay [1]) was 0.5 to 5 µM each time.

For `C[C@@H](OCC1CCCCC1)[C@H](NC(=O)[C@@H]1CN(C(=O)c2cnn(Cc3ccccc3)c2)CC12CN(C(=O)[C@H]1CC1(C)C)C2)C(C)(C)O` [I-281], the IC50 (as a rule, the concentration that gives 50% inhibition) in the assay with Kuramochi cells was 0.5 to 5 µM; in assay [1], no more than 0.5 µM.

Take `C[C@@H](OCC1CCCCC1)[C@H](NC(=O)C1CN(C(=O)c2cnn(Cc3ccccc3)c2)CC12CN(C(=O)[C@H]1CC1(C)C)C2)C(=O)N1CC(C)(C)C1` (some centres unmarked) [I-153 mixture]: the IC50 (in the assay with Kuramochi cells; in assay [1]) was no more than 0.5 µM in each case.

Turning to `CNC(=O)[C@@H](NC(=O)[C@@H]1CN(C(=O)Cc2cnn(C)c2)CC12CN(C(=O)[C@H]1CC1(C)C)C2)[C@@H](C)OCc1ccccc1` [I-384], the IC50 was greater than 10 µM with Kuramochi cells and greater than 20 µM in assay [1].

For the molecule `C[C@@H](OCC1CCCCC1)[C@@H](COC1CCCCC1)NC(=O)[C@@H]1CN(C(=O)c2cncs2)CC12CN(C(=O)[C@H]1CC1(C)C)C2` [I-308], the IC50 is no more than 0.5 µM in the assay on Kuramochi cells and 0.5 to 5 µM in assay [1].

For `CC1(C)C[C@@H]1C(=O)N1CC2(CN(C(=O)c3cnn(Cc4ccccc4)c3)C[C@H]2C(=O)N2CCN(CC3CCCCC3)C(=O)C2)C1` [I-253], the IC50 was in the range of 5 to 10 µM in the assay on Kuramochi cells and 5 to 20 µM in assay [1].

With `COC[C@@H]1CCCN(C(=O)[C@@H](NC(=O)C2CN(C(=O)c3cncs3)CC23CN(C(=O)[C@H]2CC2(C)C)C3)[C@@H](C)OCC2CCCCC2)C1` (some centres unmarked) [I-195], the IC50 (in the assay on Kuramochi cells; in assay [1]) was no more than 0.5 µM throughout.

Take `C[C@@H](OCC1CCCCC1)[C@H](NC(=O)[C@@H]1CN(C(=O)c2cnn(Cc3ccccc3)c2)CC12CN(C(=O)[C@H]1CC1(C)C)C2)C(=O)N1CC[C@@H]1CN` [I-270]: the IC50 in the assay with Kuramochi cells was greater than 10 µM; in assay [1], 5 to 20 µM.

Regarding `CNC(=O)C(NC(=O)[C@@H]1CN(C(=O)c2cncs2)CC12CN(C(=O)[C@H]1CC1(C)C)C2)c1cccc(N2CC3(COC3)C2)n1` (some centres unmarked) [I-427], the IC50 with Kuramochi cells is greater than 10 µM; in assay [1] it was greater than 20 µM.

Turning to `CNC(=O)[C@@H](NC(=O)[C@@H]1CN(C(=O)c2cnn(Cc3ccccc3)c2)CC12CN(C(=O)C(C)(C)C1CC1)C2)[C@@H](C)OCc1ccccc1` [I-276], the IC50 was greater than 10 µM in the assay on Kuramochi cells and greater than 20 µM in assay [1].

Turning to `CNC(=O)[C@@H](NC(=O)[C@H]1CN(C(=O)c2cnn(Cc3ccccc3)c2)CC12CN(C(=O)[C@H]1CC1(C)C)C2)[C@@H](C)OCC1CCCC1` [I-110B], the IC50 with Kuramochi cells was 5 to 10 µM; in assay [1], 5 to 20 µM.

As to `C[C@@H](OCC1CCC(F)(F)CC1)[C@H](NC(=O)[C@@H]1CN(C(=O)c2cn[nH]c2)CC12CN(C(=O)C1(C(F)(F)F)CC1)C2)C(=O)N1CCOCC1` [I-302], the IC50 in the assay on Kuramochi cells is greater than 10 µM; in assay [1], greater than 20 µM.

As to `CNC(=O)[C@@H](NC(=O)[C@@H]1CN(C(=O)c2cnn(Cc3ccccc3)c2)CC12CN(C(=O)[C@H]1CC1(C)C)C2)[C@@H](C)OCCC1CCCCC1` [I-125A], the IC50 (with Kuramochi cells; in assay [1]) was no more than 0.5 µM in each case.

As to `CC(=O)N1C[C@@H](C(=O)N[C@H](C(=O)N2CCCCC2)[C@@H](C)OCC2CCCCC2)C2(C1)CN(C(=O)[C@H]1CC1(C)C)C2` [I-118], the IC50 in the assay on Kuramochi cells is greater than 10 µM; in assay [1], greater than 20 µM.

Turning to `CNC(=O)[C@@H](NC(=O)[C@@H]1CN(C(=O)c2cnn(Cc3ccccc3)c2)CC12CN(C(=O)[C@H]1CC1(C)C)C2)[C@@H](C)SCc1ccccc1` [I-368], the results for the IC50 (with Kuramochi cells; in assay [1]) were greater than 10 µM and 5 to 20 µM, respectively.

`COC[C@H]1CCCN(C(=O)[C@@H](NC(=O)[C@@H]2CN(C(=O)c3cncs3)CC23CN(C(=O)C(C)(C)C2CC2)C3)[C@@H](C)OC(C)C2CCC(F)(F)CC2)C1` (some centres unmarked) [I-399]: the IC50 (in the assay with Kuramochi cells; in assay [1]) was 0.5 to 5 µM in each case.

On to `COC[C@H]1CCCN(C(=O)[C@@H](NC(=O)[C@@H]2CN(C(=O)c3cncs3)CC23CN(C(=O)[C@H]2CC2(C)C)C3)[C@@H](C)OCc2ccc(F)cc2)C1` [I-318], for which the IC50 (in the assay on Kuramochi cells; in assay [1]) was 0.5 to 5 µM throughout.

Consider `CNC(=O)[C@@H](NC(=O)[C@@H]1CN(C(=O)c2cncs2)CC12CN(C(=O)[C@H]1CC1(C)C)C2)[C@@H](C)OC(C)C1CCCCC1` (some centres unmarked) [I-279], for which the IC50 (in the assay with Kuramochi cells; in assay [1]) was 0.5 to 5 µM throughout.

For the molecule `CC1(C)C[C@@H]1C(=O)N1CC2(CN(C(=O)c3cncs3)C[C@@H]2C(=O)N[C@@H](COCC2CCCCC2)C(=O)N2CCCCC2)C1` [I-293], the IC50 with Kuramochi cells is greater than 10 µM; in assay [1], greater than 20 µM.

`COc1ccc(CNC(=O)[C@@H]2CN(C(=O)c3cnn(Cc4ccccc4)c3)CC23CN(C(=O)[C@H]2CC2(C)C)C3)nn1` [I-371]: the 50% inhibitory concentration (IC50) in the assay on Kuramochi cells is greater than 10 µM; in assay [1], greater than 20 µM.

For `C[C@@H](OCC1CCCCC1)[C@H](NC(=O)C1CN(C(=O)c2cnn(Cc3ccccc3)c2)CC12CN(C(=O)[C@H]1CC1(C)C)C2)C(=O)N1CCCCC1` (some centres unmarked) [I-194 mixture], the IC50 (with Kuramochi cells; in assay [1]) was no more than 0.5 µM throughout.

For the molecule `CNC(=O)[C@@H](NC(=O)[C@@H]1CN(C(=O)c2cncs2)CC12CN(C(=O)[C@H]1CC1(C)C)C2)[C@@H](C)OCC1CCCCC1` [I-129A], the IC50 (with Kuramochi cells; in assay [1]) was 0.5 to 5 µM throughout.

As for `C[C@@H](OCC1CCC(F)(F)CC1)[C@H](NC(=O)[C@@H]1CN(C(=O)c2cnn(Cc3ccc(F)cc3)c2)CC12CN(C(=O)[C@H]1CC1(C)C)C2)C(=O)N1CCC(F)(F)CC1` [I-164A], the IC50 (with Kuramochi cells; in assay [1]) was no more than 0.5 µM each time.

As for `CNC(=O)[C@@H](NC(=O)[C@@H]1CN(C(=O)c2cnn(Cc3ccccc3)c2)CC12CN(C(=O)C(C)C1CC1)C2)[C@@H](C)OCc1ccccc1` (some centres unmarked) [I-277], the IC50 in the assay on Kuramochi cells was greater than 10 µM; in assay [1], greater than 20 µM.

With `CC1(C)C[C@@H]1C(=O)N1CC2(CN(C(=O)c3cnn(Cc4ccccc4)c3)C[C@@H]2C(=O)NCc2nnc[nH]2)C1` [I-191B], the IC50 with Kuramochi cells is greater than 10 µM; in assay [1], greater than 20 µM.

As to `CNC(=O)[C@@H](NC(=O)[C@H]1CN(C(=O)c2cnc(Cl)s2)CC12CN(C(=O)[C@H]1CC1(C)C)C2)[C@@H](C)OCC1CCCCC1` [I-189B], the IC50 with Kuramochi cells is greater than 10 µM; in assay [1], greater than 20 µM.

For `CNC(=O)[C@@H](NC(=O)[C@@H]1CN(C(=O)c2cncs2)CC12CN(C(=O)[C@H]1CC1(C)C)C2)[C@@H](C)OCC12CCC(CC1)OC2` [I-342], the IC50 (with Kuramochi cells; in assay [1]) was 0.5 to 5 µM each time.

On to `COC[C@H]1CCCN(C(=O)[C@@H](C)NC(=O)[C@@H]2CN(C(=O)c3cncs3)CC23CN(C(=O)[C@H]2CC2(C)C)C3)C1` [I-324], for which the IC50 with Kuramochi cells was greater than 10 µM; in assay [1], greater than 20 µM.

As to `C[C@@H](OCC12CCC(CC1)OC2)[C@H](NC(=O)[C@@H]1CN(C(=O)c2cncs2)CC12CN(C(=O)[C@H]1CC1(C)C)C2)C(=O)N1CCC2(CC1)COC2` [I-336], the IC50 in the assay with Kuramochi cells was greater than 10 µM; in assay [1] it was 5 to 20 µM.

Consider `CNC(=O)[C@@H](NC(=O)[C@@H]1CN(C(=O)c2sc(C)nc2C)CC12CN(C(=O)[C@H]1CC1(C)C)C2)[C@@H](C)OCC1CCCCC1` [I-213A], for which the IC50 (with Kuramochi cells; in assay [1]) was 0.5 to 5 µM throughout.

As for `C[C@@H](OCC1CCCCC1)[C@H](NC(=O)[C@@H]1CN(C(=O)c2cncs2)CC12CN(C(=O)[C@H]1CC1(F)F)C2)C(=O)N1CCCCC1` [I-296], the IC50 (in the assay on Kuramochi cells; in assay [1]) was 0.5 to 5 µM each time.

As for `CNC(=O)[C@@H](NC(=O)[C@@H]1CN(C(=O)c2sc(C(C)C)nc2C)CC12CN(C(=O)[C@H]1CC1(C)C)C2)[C@@H](C)OCC1CCCCC1` [I-227A], the IC50 in the assay with Kuramochi cells was greater than 10 µM; in assay [1] it was greater than 20 µM.

For the molecule `COC[C@H]1CCCN(C(=O)[C@@H](NC(=O)C2CN(C(=O)c3cncs3)CC23CN(C(=O)[C@H]2CC2(C)C)C3)[C@@H](C)OCC2CCCCC2)C1` (some centres unmarked) [I-196 mixture], the IC50 in the assay on Kuramochi cells is no more than 0.5 µM; in assay [1], 0.5 to 5 µM.

Regarding `CNC(=O)[C@@H](NC(=O)[C@@H]1CN(C(=O)c2cnn(Cc3ccccc3)c2)CC12CN(C(=O)[C@H]1CC1(C)C)C2)[C@@H](C)N(CC1CCCCC1)C(C)=O` [I-273, (S)-6-(1-benzyl-1H-pyrazole-4-carbonyl)-N-((2S,3R)-3-(N-(cyclohexylmethyl)acetamido)-1-(methylamino)-1-oxobutan-2-yl)-2-((S)-2,2-dimethylcyclopropane-1-carbonyl)-2,6-diazaspiro[3.4]octane-8-carboxamide], the values for the IC50 (in the assay on Kuramochi cells; in assay [1]) were greater than 10 µM and greater than 20 µM, respectively.

With `CNC(=O)[C@@H](NC(=O)[C@@H]1CN(C(=O)c2cnc(COC(C)(C)C)s2)CC12CN(C(=O)[C@H]1CC1(C)C)C2)[C@@H](C)OCC1CCCCC1` [I-175A], the IC50 (in the assay with Kuramochi cells; in assay [1]) was no more than 0.5 µM throughout.

Turning to `CNC(=O)[C@@H](NC(=O)[C@@H]1CN(C(=O)c2cnn(Cc3ccccc3)c2)CC12CN(C(=O)[C@H]1CC1(C)C)C2)[C@@H](C)N(C)CC1CCCCC1` [I-266], the IC50 in the assay on Kuramochi cells is greater than 10 µM; in assay [1], greater than 20 µM.

Consider `CNC(=O)[C@@H](NC(=O)[C@@H]1CN(C(=O)c2cncs2)CC12CN(C(=O)[C@H]1CC1(C)C)C2)C1(OCc2ccccc2)CC1` [I-375], for which the IC50 was greater than 10 µM in the assay with Kuramochi cells and greater than 20 µM in assay [1].

For the molecule `C[C@@H]1C[C@H](C)CN(C(=O)[C@@H](NC(=O)C2CN(C(=O)c3cnn(Cc4ccccc4)c3)CC23CN(C(=O)[C@H]2CC2(C)C)C3)[C@@H](C)OCC2CCCCC2)C1` (some centres unmarked) [I-104], the half-maximal inhibitory concentration (IC50) was no more than 0.5 µM in the assay on Kuramochi cells and 0.5 to 5 µM in assay [1].

On to `COC1CCN(C(=O)[C@@H](NC(=O)[C@@H]2CN(C(=O)c3cncs3)CC23CN(C(=O)[C@H]2CC2(C)C)C3)[C@@H](C)OCC2CCC(F)(F)CC2)CC1` [I-385], for which the IC50 (with Kuramochi cells; in assay [1]) was no more than 0.5 µM each time.

On to `C[C@@H](OCC1CCCCC1)[C@H](NC(=O)[C@@H]1CN(C(=O)c2cnn(Cc3ccccc3)c2)CC12CN(C(=O)[C@H]1CC1(C)C)C2)C(=O)N1CCOCC1` [I-152A], for which the IC50 (in the assay on Kuramochi cells; in assay [1]) was no more than 0.5 µM throughout.
